Results taken from patent US6878253B2, “Chiral separation of benzoporphyrin derivative mono-and di-acids by laser-induced fluorescence capillary electrophoresis” (The University of British Columbia, priority 1998, dated 2005).

Experiments:
[1] = Extinction coefficient determination in borate/cholate buffer; format: physicochemical; conditions: 430 nm; 300 mM borate, 10% acetonitrile, 25 mM sodium cholate, pH 9.2
Excerpt: The compounds have the same chromophore and identical absorption spectra (FIG. 3a) with a characteristic major broad peak in the Soret region (420 nm) and several other peaks at longer wavelengths. The most interesting long wavelength peak, in terms of applications in PDT, is the peak at 688 nm (in organic solvents). […] An emission spectrum is also shown in FIG. 3b with a characteristic emission at about 692 nm, near red (Q-band), with a Stokes shift of ˜4 nm for fluorescence. […] As such, there is no gain in photo absorption by use of any particular BPD enantiomer.

[2] = Decomposition (hydrolysis) in electrophoresis buffers; format: physicochemical; conditions: in one hour at pH 9.2
Protocol: Separation by CE is also affected by the buffering system used. Buffer type, concentration, ionic strength, and pH are all parameters to consider, and a variety of buffers may be used. Buffer solutions of pH 11.04, 100 mM 3-(cyclohexylamino)-1-propanesulfonic acid (CAPS); pH 6.76, 30 mM ammonium acetate; pH 2.76, 50 mM citric acid; and pH 9.2, 100 mM borate were tested as electrolytes. […] This was followed by either separation shut down or excess spiking and signal noise. In citric acid buffer the BPD enantiomers were protonated at the propionic side chain, defeating separation based on the deprotonated state. Since the effective charge(s) are the same for BPD-DA and BPD-MA, the electrophoretic mobility difference is normally very small. Also, at […], the EOF was very small and this caused the migration time to become overly long. The result was very poor signal separation due to extensive diffusion.
With borate buffer at about pH 9.2, however, the BPD-DA and BPD-MA enantiomers were completely separated. This, in combination with the ability of borate to form a very stable buffer solution with high buffering capacity and its ability to be used in very high concentrations, made it a preferred choice for use in the instant separation methods. Borate has also been used in other separation systems (Consden et al. (1952); Boeseken (1949); and Landers et al. (1992)). […]

[3] = tested on: skin; conditions: versus Photofrin (Richter et al. (1987)); cited from earlier work

Compound	Extinction coefficient [1]	decomposition [2]	skin phototoxicity [3]
benzoporphyrin derivative monoacid ring A [BPD-MA]	61,000 M^−1 cm^−1	less than 1%	lower skin phototoxicity than Photofrin
C=Cc1c(C)c2cc3nc(cc4[nH]c(cc5nc(cc1[nH]2)C(C)=C5CCC(=O)O)c(CCC(=O)O)c4C)[C@@]1(C)C3=CC=C(C(=O)OC)[C@H]1C(=O)OC [BPD-DA, benzoporphyrin derivative diacid]	75,200 M^−1 cm^−1		
